Earlier results as cited in patent US20060234993A1, “Use of androstane derivatives for enhancing physical performance” (priority 2005, published 2006).
Read-outs that look alike come from different tables or passages of the source.

Key:
[1] = in vivo
[2] = test system: mice

Compound | estrogenic and androgenic side effects, including gynecomastia, water retention (edema), fat retention, prostate enlargement, acne, hair loss [1] | body weight ([2]; normal mice) | body weight ([2]; obese mice)
C[C@]12CC[C@H](O)CC1=CC[C@@H]1[C@@H]2CC[C@]2(C)C(=O)CC[C@@H]12 [DHEA, dehydroepiandrosterone] | negative estrogenic and androgenic side effects |  | 
C[C@]12CC[C@@H](O)C[C@H]1CC[C@@H]1[C@@H]2CC[C@]2(C)C(=O)CC[C@@H]12 [Etiocholanolone, 3-alpha (beta)-hydroxy-5β-androstan-17-one] |  | reduce body weight | reduce body weight
